According to patent US8629276B2, “Inhibitors of human immunodeficiency virus replication” (priority 2012, dated 2014):

tested on: recombinant NL-Rluc virus; test: Inhibition of HIV replication (NL-RLuc virus, luciferase readout in MT-2 cells); format: cell-based; conditions: Human immunodeficiency virus 1, MT2, 120 h

In order of falling EC50:
1. Cc1onc(-c2ccccc2)c1C(=O)N1Cc2c(nc(C(C)C)c(C(OC(C)(C)C)C(=O)O)c2-c2ccc(F)cc2)C(C)(C)C1 (stereo not shown) [Example 14, 2-tert-Butoxy-2-(4-(4-fluorophenyl)-2-isopropyl-8,8-dimethyl-6-(5-methyl-3-phenylisoxazole-4-carbonyl)-5,6,7,8-tetrahydro-1,6-naphthyridin-3-yl)acetic acid]  10200 nM
2. CC(=O)N1Cc2c(nc(C(C)C)c(C(OC(C)(C)C)C(=O)O)c2-c2ccc(F)cc2)C(C)(C)C1 (stereo not shown) [Example 2, 2-(6-Acetyl-4-(4-fluorophenyl)-2-isopropyl-8,8-dimethyl-5,6,7,8-tetrahydro-1,6-naphthyridin-3-yl)-2-tert-butoxyacetic acid]  10000 nM
3. CC(C)c1nc2c(c(-c3ccc(F)cc3)c1C(OC(C)(C)C)C(=O)O)CN(C(=O)Cc1ccccc1)CC2(C)C (stereo not shown) [Example 7, 2-tert-Butoxy-2-(4-(4-fluorophenyl)-2-isopropyl-8,8-dimethyl-6-(2-phenylacetyl)-5,6,7,8-tetrahydro-1,6-naphthyridin-3-yl)acetic acid]  7540 nM
4. CC(C)c1nc2c(c(-c3ccc(F)cc3)c1C(OC(C)(C)C)C(=O)O)CN(Cc1ccc(F)cc1)CC2(C)C (stereo not shown) [Example 16, 2-tert-Butoxy-2-(6-(4-fluorobenzyl)-4-(4-fluorophenyl)-2-isopropyl-8,8-dimethyl-5,6,7,8-tetrahydro-1,6-naphthyridin-3-yl)acetic acid]  6920 nM
5. CC(C)c1nc2c(c(-c3ccc(F)cc3)c1C(OC(C)(C)C)C(=O)O)CN(C(=O)c1ccccc1)CC2(C)C (stereo not shown) [Example 3, 2-(6-Benzoyl-4-(4-fluorophenyl)-2-isopropyl-8,8-dimethyl-5,6,7,8-tetrahydro-1,6-naphthyridin-3-yl)-2-tert-butoxyacetic acid]  6790 nM
6. CC(C)c1nc2c(c(-c3ccc(F)cc3)c1C(OC(C)(C)C)C(=O)O)CN(C(=O)[C@@H]1C[C@H]1c1ccccc1)CC2(C)C (stereo partly drawn) [Example 8, 2-tert-Butoxy-2-(4-(4-fluorophenyl)-2-isopropyl-8,8-dimethyl-6-((1R,2R)-2-phenylcyclopropanecarbonyl)-5,6,7,8-tetrahydro-1,6-naphthyridin-3-yl)acetic acid]  6720 nM
7. CC(C)c1nc2c(c(-c3ccc(F)cc3)c1C(OC(C)(C)C)C(=O)O)CN(C(=O)C(=O)c1c[nH]c3ccccc13)CC2(C)C (stereo not shown) [Example 11, 2-(6-(2-(1H-Indol-3-yl)-2-oxoacetyl)-4-(4-fluorophenyl)-2-isopropyl-8,8-dimethyl-5,6,7,8-tetrahydro-1,6-naphthyridin-3-yl)-2-tert-butoxyacetic acid]  4120 nM
8. CC(C)c1nc2c(c(-c3ccc(F)cc3)c1C(OC(C)(C)C)C(=O)O)CN(C(=O)c1ccc(F)cc1)CC2(C)C (stereo not shown) [Example 4, 2-tert-Butoxy-2-(6-(4-fluorobenzoyl)-4-(4-fluorophenyl)-2-isopropyl-8,8-dimethyl-5,6,7,8-tetrahydro-1,6-naphthyridin-3-yl)acetic acid]  3160 nM
9. Cc1ccc(-c2c3c(nc(C)c2C(OC(C)(C)C)C(=O)O)CCN(S(C)(=O)=O)C3)cc1 (stereo not shown) [Example 22, 2-(tert-Butoxy)-2-(2-methyl-6-(methylsulfonyl)-4-(p-tolyl)-5,6,7,8-tetrahydro-1,6-naphthyridin-3-yl)acetic acid]  2650 nM
10. Cc1ccc(-c2c3c(nc(C)c2C(OC(C)(C)C)C(=O)O)CCN(C(=O)[C@H](Cc2ccccc2)NS(=O)(=O)c2ccc(C)cc2)C3)cc1 (stereo in doubt) [Example 32, 2-(tert-Butoxy)-2-(2-methyl-6-(2-(4-methylphenylsulfonamido)-3-phenylpropanoyl)-4-(p-tolyl)-5,6,7,8-tetrahydro-1,6-naphthyridin-3-yl)acetic acid]  2300 nM
11. COC(=O)N1CCc2nc(C)c(C(OC(C)(C)C)C(=O)O)c(-c3ccc(C)cc3)c2C1 (stereo not shown) [Example 26, 2-(tert-Butoxy)-2-(6-(methoxycarbonyl)-2-methyl-4-(p-tolyl)-5,6,7,8-tetrahydro-1,6-naphthyridin-3-yl)acetic acid]  1640 nM
12. Cc1ccc(S(=O)(=O)N[C@@H](Cc2ccccc2)C(=O)N2Cc3c(nc(C(C)C)c(C(OC(C)(C)C)C(=O)O)c3-c3ccc(F)cc3)C(C)(C)C2)cc1 (stereo in doubt) [Example 10, 2-tert-Butoxy-2-(4-(4-fluorophenyl)-2-isopropyl-8,8-dimethyl-6-(2-(4-methylphenylsulfonamido)-3-phenylpropanoyl)-5,6,7,8-tetrahydro-1,6-naphthyridin-3-yl)acetic acid]  777 nM
13. Cc1nc2c(c(-c3ccc(Cl)cc3)c1[C@H](OC(C)(C)C)C(=O)O)CN(C(=O)OCc1ccccc1)CC2 [Example 38, (S)-2-(6-((Benzyloxy)carbonyl)-4-(4-chlorophenyl)-2-methyl-5,6,7,8-tetrahydro-1,6-naphthyridin-3-yl)-2-(tert-butoxy)acetic acid]  543 nM
14. Cc1ccc(-c2c3c(nc(C)c2C(OC(C)(C)C)C(=O)O)CCN(c2ccc(-c4ccccc4)cc2)C3)cc1 (stereo not shown) [Example 30, 2-(6-([1,1′-Biphenyl]-4-yl)-2-methyl-4-(p-tolyl)-5,6,7,8-tetrahydro-1,6-naphthyridin-3-yl)-2-(tert-butoxy)acetic acid]  323 nM
15. CC(C)c1nc2c(c(-c3ccc(F)cc3)c1C(OC(C)(C)C)C(=O)O)CN(C(=O)Cc1ccc(F)cc1)CC2(C)C (stereo not shown) [Example 6, 2-tert-Butoxy-2-(4-(4-fluorophenyl)-6-(2-(4-fluorophenyl)acetyl)-2-isopropyl-8,8-dimethyl-5,6,7,8-tetrahydro-1,6-naphthyridin-3-yl)acetic acid]  185 nM
16. Cc1ccc(-c2c3c(nc(C)c2[C@H](OC(C)(C)C)C(=O)O)CCN(CCc2c[nH]c4ccccc24)C3)cc1 [Example 46, (S)-2-(6-(2-(1H-Indol-3-yl)ethyl)-2-methyl-4-(p-tolyl)-5,6,7,8-tetrahydro-1,6-naphthyridin-3-yl)-2-(tert-butoxy)acetic acid]  139 nM
17. Cc1ccc(-c2c3c(nc(C)c2[C@H](OC(C)(C)C)C(=O)O)CCN(Cc2cccc(Cl)c2)C3)cc1 [Example 39, (S)-2-(tert-Butoxy)-2-(6-(3-chlorobenzyl)-2-methyl-4-(p-tolyl)-5,6,7,8-tetrahydro-1,6-naphthyridin-3-yl)acetic acid]  137 nM
18. Cc1nc2c(c(-c3cc(F)c4c(c3C)CCCO4)c1[C@H](OC(C)(C)C)C(=O)O)CN(Cc1cccc(Cl)c1)CC2(C)C [Example 37, (2S)-2-(tert-Butoxy)-2-(6-(3-chlorobenzyl)-4-(8-fluoro-5-methylchroman-6-yl)-2,8,8-trimethyl-5,6,7,8-tetrahydro-1,6-naphthyridin-3-yl)acetic acid]  69 nM
19. Cc1ccc(-c2c3c(nc(C)c2[C@H](OC(C)(C)C)C(=O)O)C(C)(C)CN(CCCc2ccccc2)C3)cc1 [Example 43, (S)-2-(tert-Butoxy)-2-(2,8,8-trimethyl-6-(3-phenylpropyl)-4-(p-tolyl)-5,6,7,8-tetrahydro-1,6-naphthyridin-3-yl)acetic acid]  29 nM
20. Cc1ccc(-c2c3c(nc(C)c2C(OC(C)(C)C)C(=O)O)CCN(CCCc2ccccc2)C3)cc1 (stereo not shown) [Example 29, 2-(tert-Butoxy)-2-(2-methyl-6-(3-phenylpropyl)-4-(p-tolyl)-5,6,7,8-tetrahydro-1,6-naphthyridin-3-yl)acetic acid]  10 nM
21. Cc1nc2c(c(-c3cc(F)c4c(c3C)CCCO4)c1[C@H](OC(C)(C)C)C(=O)O)CN(CC1CC1c1ccccc1)CC2 (stereo partly drawn) [Example 50, (2S)-2-(tert-Butoxy)-2-((R)-4-(8-fluoro-5-methylchroman-6-yl)-2-methyl-6-((2-phenylcyclopropyl)methyl)-5,6,7,8-tetrahydro-1,6-naphthyridin-3-yl)acetic acid]  5 nM
22. Cc1nc2c(c(-c3cc(F)c4c(c3C)CCCO4)c1[C@H](OC(C)(C)C)C(=O)O)CN(CCCc1ccc(Cl)cc1)CC2 (atropisomer, axis not shown) [Example 44, (2S)-2-(tert-Butoxy)-2-(6-(3-(4-chlorophenyl)propyl)-(R)-4-(8-fluoro-5-methylchroman-6-yl)-2-methyl-5,6,7,8-tetrahydro-1,6-naphthyridin-3-yl)acetic acid]  3 nM
23. Cc1cc(CCCN2CCc3nc(C)c([C@H](OC(C)(C)C)C(=O)O)c(-c4cc(F)c5c(c4C)CCCO5)c3C2)ccc1F (atropisomer, axis not shown) [Example 52, (2S)-2-(tert-Butoxy)-2-(6-(3-(4-fluoro-3-methylphenyl)propyl)-(R)-4-(8-fluoro-5-methylchroman-6-yl)-2-methyl-5,6,7,8-tetrahydro-1,6-naphthyridin-3-yl)acetic acid]  2 nM
24. Cc1ccccc1CCCN1CCc2nc(C)c([C@H](OC(C)(C)C)C(=O)O)c(-c3cc(F)c4c(c3C)CCCO4)c2C1 (atropisomer, axis not shown) [Example 48, (2S)-2-(tert-Butoxy)-2-((R)-4-(8-fluoro-5-methylchroman-6-yl)-2-methyl-6-(3-(o-tolyl)propyl)-5,6,7,8-tetrahydro-1,6-naphthyridin-3-yl)acetic acid]  2 nM
25. Cc1nc2c(c(-c3cc(F)c4c(c3C)CCCO4)c1[C@H](OC(C)(C)C)C(=O)O)CN(CCCc1cccc(C(F)(F)F)c1)CC2 (atropisomer, axis not shown) [Example 53]  2 nM
26. Cc1cccc(CCCN2CCc3nc(C)c([C@H](OC(C)(C)C)C(=O)O)c(-c4cc(F)c5c(c4C)CCCO5)c3C2)c1 (atropisomer, axis not shown) [Example 47, (2S)-2-(tert-Butoxy)-2-((R)-4-(8-fluoro-5-methylchroman-6-yl)-2-methyl-6-(3-(m-tolyl)propyl)-5,6,7,8-tetrahydro-1,6-naphthyridin-3-yl)acetic acid]  2 nM
27. Cc1nc2c(c(-c3cc(F)c4c(c3C)CCCO4)c1[C@H](OC(C)(C)C)C(=O)O)CN(CCCc1ccccc1F)CC2 (atropisomer, axis not shown) [Example 55, (2S)-2-(tert-Butoxy)-2-((R)-4-(8-fluoro-5-methylchroman-6-yl)-6-(3-(2-fluorophenyl)propyl)-2-methyl-5,6,7,8-tetrahydro-1,6-naphthyridin-3-yl)acetic acid]  1 nM
28. Cc1ccc(CCCN2CCc3nc(C)c([C@H](OC(C)(C)C)C(=O)O)c(-c4cc(F)c5c(c4C)CCCO5)c3C2)cc1F (atropisomer, axis not shown) [Example 51]  1 nM
